Assay results from EPA's ToxRefDB 2.

Key:
[1] = test system: rat; settings: Peri- and post-natal toxicity study (Segment III), sprague dawley, Oral, Gavage/Intubation, dose end: 4 PND
[2] = test system: rat; settings: Carcinogenicity; sprague dawley; Oral; Gavage/Intubation; dose end: 2 year; group: systemic; systemic / in life observation / body weight / body weight gain + systemic / in life observation / clinical signs / [other] + systemic / in …
[3] = test system: dog; settings: Chronic toxicity; beagle; Oral; Capsule; dose end: 6 month; group: systemic; systemic / clinical chemistry / triglycerides / triglycerides + systemic / in life observation / body weight / body weight gain + systemic…
[4] = test system: mouse; settings: Subchronic oral toxicity in rodents, cd1, Gavage/Intubation, dose end: 94 days, group: systemic
[5] = test system: rat; settings: Prenatal developmental toxicity study; sprague dawley; Oral; Gavage/Intubation; dose end: 15 GD; group: maternal; systemic / in life observation / clinical signs / salivation
[6] = test system: rabbit; settings: Prenatal developmental toxicity study, new zealand white, Oral, Gavage/Intubation, dose end: 18 GD, group: maternal
[7] = test system: rat; settings: Fertility (Segment I), sprague dawley, Oral, Gavage/Intubation, dose end: 7 GD, group: parental
[8] = test system: rat; settings: Chronic toxicity, sprague dawley, Oral, Gavage/Intubation, dose end: 6 month, group: systemic
[9] = test system: rat; settings: Peri- and post-natal toxicity study (Segment III), sprague dawley, Oral, Gavage/Intubation, dose end: 21 PND
[10] = test system: dog; settings: Chronic toxicity, beagle, Oral, Capsule, dose end: 52 week, group: systemic
[11] = test system: rat; settings: Sub-acute repeat dose toxicity, sprague dawley, Oral, Gavage/Intubation, dose end: 4 week, group: systemic
[12] = test system: rabbit; settings: Prenatal developmental toxicity study, new zealand white, Oral, Gavage/Intubation, dose end: 18 GD, group: maternal; remark: listed apart in the source
[13] = test system: rat; settings: Prenatal developmental toxicity study; sprague dawley; Oral; Gavage/Intubation; dose end: 15 GD; group: maternal; reproductive / reproductive performance / estrous cycle / corpora lutea + reproductive / reproductive performance / implantations / …
[14] = test system: mouse; settings: Carcinogenicity; cd1; Oral; Gavage/Intubation; dose end: 2 year; group: systemic; systemic / in life observation / body weight / body weight gain + systemic / in life observation / clinical signs / [other] + systemic / in …
[15] = group: maternal, reproductive / offspring survival early / birth index / live birth index
[16] = group: parental, systemic / in life observation / clinical signs / [other] + systemic / in life observation / clinical signs / labored respiration + systemic…
[17] = group: parental, systemic / in life observation / clinical signs / [other] + systemic / in life observation / clinical signs / salivation + systemic / in …
[18] = systemic / clinical chemistry / calcium / calcium + systemic / clinical chemistry / cholesterol / cholesterol + systemic / clinical …
[19] = systemic / clinical chemistry / potassium / potassium + systemic / clinical chemistry / bilirubin / total bilirubin + systemic / clinical …
[20] = reproductive / reproductive performance / aborted / aborted + reproductive / reproductive performance / postimplantation loss / …
[21] = systemic / in life observation / clinical signs / abnormal respiratory sounds + systemic / in life observation / clinical signs / urogenital…
[22] = systemic / in life observation / clinical signs / abnormal respiratory sounds + systemic / in life observation / food consumption / food …
[23] = systemic / clinical chemistry / chloride / chloride + systemic / clinical chemistry / triglycerides / triglycerides + systemic / clinical …
[24] = systemic / clinical chemistry / triglycerides / triglycerides + systemic / in life observation / body weight / body weight gain + systemic…
[25] = group: maternal, reproductive / reproductive performance / reproductive performance other / NOS
[26] = group: maternal, reproductive / reproductive performance / reproductive performance other / NOS + reproductive / offspring survival early / litter viability …
[27] = group: offspring, systemic / in life observation / body weight / offspring (pup) weight
[28] = group: parental, systemic / in life observation / clinical signs / abnormal respiratory sounds + systemic / in life observation / clinical signs / emaciation…
[29] = group: parental, systemic / in life observation / mortality / mortality
[30] = systemic / clinical chemistry / triglycerides / triglycerides + systemic / in life observation / body weight / body weight gain
[31] = systemic / clinical chemistry / potassium / potassium + systemic / clinical chemistry / sodium / sodium + systemic / in life observation / …
[32] = systemic / in life observation / clinical signs / motor activity
[33] = systemic / in life observation / body weight / body weight gain + systemic / in life observation / food consumption / food consumption
[34] = systemic / in life observation / food consumption / food consumption

CCOC(=O)COc1ccc2c(c1)CC(NCC(O)c1cccc(Cl)c1)CC2.Cl (stereo not drawn)
LEL [1, 15]: 200 mg/kg/day | LOAEL [1, 15]: > 750 mg/kg/day | NEL [1, 15]: 50 mg/kg/day | NOAEL [1, 15]: ≥ 750 mg/kg/day | LOAEL [1, 16]: > 750 mg/kg/day | NOAEL [1, 16]: ≥ 750 mg/kg/day | LEL [1, 17]: 50 mg/kg/day | NEL [1, 17]: < 50 mg/kg/day | LEL [2]: 50 mg/kg/day | LOAEL [2]: > 500 mg/kg/day | NEL [2]: < 50 mg/kg/day | NOAEL [2]: ≥ 500 mg/kg/day | LEL [3]: 10 mg/kg/day | LOAEL [3]: > 250 mg/kg/day | NEL [3]: < 10 mg/kg/day | NOAEL [3]: ≥ 250 mg/kg/day | LOAEL [4, 18]: > 500 mg/kg/day | NOAEL [4, 18]: ≥ 500 mg/kg/day | LEL [4, 19]: 100 mg/kg/day | NEL [4, 19]: < 100 mg/kg/day | LEL [5]: 200 mg/kg/day | LOAEL [5]: > 750 mg/kg/day | NEL [5]: 50 mg/kg/day | NOAEL [5]: ≥ 750 mg/kg/day | LOAEL [6, 20]: > 500 mg/kg/day | NEL [6, 20]: 50 mg/kg/day | NOAEL [6, 20]: ≥ 500 mg/kg/day | LEL ([6]; reproductive / reproductive performance / postimplantation loss / postimplantation loss): 160 mg/kg/day | LOAEL [7, 21]: > 750 mg/kg/day | NOAEL [7, 21]: ≥ 750 mg/kg/day | LEL [7, 22]: 50 mg/kg/day | NEL [7, 22]: < 50 mg/kg/day | LOAEL [8, 23]: > 500 mg/kg/day | NOAEL [8, 23]: ≥ 500 mg/kg/day | LEL [8, 24]: 20 mg/kg/day | NEL [8, 24]: < 20 mg/kg/day | LEL [9, 25]: 50 mg/kg/day | NEL [9, 25]: < 50 mg/kg/day | LOAEL [9, 26]: > 750 mg/kg/day | NOAEL [9, 26]: ≥ 750 mg/kg/day | LEL [9, 27]: 50 mg/kg/day | LOAEL [9, 27]: 200 mg/kg/day | NEL [9, 27]: < 50 mg/kg/day | NOAEL [9, 27]: 50 mg/kg/day | LOAEL [9, 28]: > 750 mg/kg/day | NOAEL [9, 28]: ≥ 750 mg/kg/day | LEL [9, 29]: 50 mg/kg/day | NEL [9, 29]: < 50 mg/kg/day | LEL [10, 30]: 10 mg/kg/day | NEL [10, 30]: < 10 mg/kg/day | LOAEL [10, 24]: > 250 mg/kg/day | NOAEL [10, 24]: ≥ 250 mg/kg/day | LOAEL [11, 31]: > 500 mg/kg/day | NOAEL [11, 31]: ≥ 500 mg/kg/day | LEL [11, 32]: 20 mg/kg/day | NEL [11, 32]: < 20 mg/kg/day | LOAEL [12, 33]: > 500 mg/kg/day | NOAEL [12, 33]: ≥ 500 mg/kg/day | LEL [12, 34]: 50 mg/kg/day | NEL [12, 34]: < 50 mg/kg/day | LEL [13]: 200 mg/kg/day | LOAEL [13]: > 750 mg/kg/day | NEL [13]: 50 mg/kg/day | NOAEL [13]: ≥ 750 mg/kg/day | LEL [14]: 25 mg/kg/day | LOAEL [14]: > 100 mg/kg/day | NEL [14]: < 25 mg/kg/day | NOAEL [14]: ≥ 100 mg/kg/day
